According to patent publication US20260022142A1, “MACROCYCLIC IMMUNOMODULATORS” (Bristol-Myers Squibb Company, priority 2022, published 2026):
Bridge positions count the residues as written; N and C are the ends. Square brackets hold non-standard residues; d marks the D form. Peptide text beside a SMILES is read from it. * marks the point of attachment. ξ: configuration not given here. Bip = N[C@@H](Cc1ccc(-c2ccccc2)cc1)C(=O)O; Phe(3-Me) = Cc1cccc(C[C@H](N)C(=O)O)c1; Cha = N[C@@H](CC1CCCCC1)C(=O)O; dOrn = NCCC[C@@H](N)C(=O)O; dDab = NCC[C@@H](N)C(=O)O; Carboxymethyl = O=C(O)C*; Orn = NCCC[C@H](N)C(=O)O; dDap = NC[C@@H](N)C(=O)O; Aun = NCCCCCCCCCCC(=O)O; Dab = NCC[C@H](N)C(=O)O; Dap = NC[C@H](N)C(=O)O; ξC = NC(CS)C(=O)O

Target: T1, PD-1/PD-L1 interaction (PE-labeled human PD-L1-Ig binding to Jurkat cell line over-expressing human PD-1) (Homo sapiens, UniProt Q15116)
T1 construct: expressed in transfected cells; host or cells: Jurkat
Assay: Jurkat-PD-1 Cell Binding High-Content Screening Assay (CBA)
Assay type: cell-based
Details: Jurkat cell line over-expressing human PD-1; PE-labeled PD-L1-Ig 20 nM final; read-out: Jurkat hPD1-PDL1 IC50
In short: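 Human PD-L1-Ig carrying a covalent PE label on its Ig tag serves as the probe, applied at 20 nM final to compound-treated (2 h, 37° C) Jurkat-hPD-1 cells in medium with 10% fetal calf serum. After one hour, fixation and nuclear staining precede high-content image analysis.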

T1 sequence (Q15116 25-288): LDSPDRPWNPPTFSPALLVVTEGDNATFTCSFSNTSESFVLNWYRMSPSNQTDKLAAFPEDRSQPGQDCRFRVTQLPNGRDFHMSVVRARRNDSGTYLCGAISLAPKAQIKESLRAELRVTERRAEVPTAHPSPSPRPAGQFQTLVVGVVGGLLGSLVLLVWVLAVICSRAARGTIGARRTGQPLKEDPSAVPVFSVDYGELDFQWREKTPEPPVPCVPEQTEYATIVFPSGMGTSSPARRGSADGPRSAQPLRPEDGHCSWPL

| SMILES | IC50 |
| --- | --- |
| Cc1cccc(C[C@@H]2NC(=O)[C@H](CC(=O)O)NC(=O)[C@H](Cc3ccc(OCC(=O)O)cc3)NC(=O)[C@H](CN)NC(=O)CSC[C@@H](C(=O)N[C@@H](CCCCN)C(=O)NCCCCCCCCCCC(=O)O)NC(=O)[C@H]([C@@H](C)O)NC(=O)[C@H](C(C)C)NC(=O)[C@H](CC3CCCCC3)NC(=O)[C@H](Cc3cnc[nH]3)NC(=O)[C@@H](CC(C)C)NC(=O)[C@H](CCCN)NC(=O)[C@H](C(C)C)NC(=O)[C@H](Cc3ccc(-c4ccccc4)cc3)NC(=O)[C@H](C(C)C)NC2=O)c1 [Compound 1110] ({CH2CO}-[Dap]Y(Carboxymethyl)D[Phe(3-Me)]V[Bip]V[Orn][dL]H[Cha]VTCK[Aun]-OH; thioether N-14) | 33 nM |
| Cc1cccc(C[C@@H]2NC(=O)[C@H](CC(=O)O)NC(=O)[C@H](Cc3ccc(OCC(=O)O)cc3)NC(=O)[C@H](CN)NC(=O)CSC[C@@H](C(=O)N[C@@H](C)C(=O)N[C@@H](CN)C(=O)NCCCCCCCCCCC(=O)O)NC(=O)[C@H]([C@@H](C)O)NC(=O)[C@H](C(C)C)NC(=O)[C@H](CC3CCCCC3)NC(=O)[C@H](Cc3cnc[nH]3)NC(=O)[C@@H](CC(C)C)NC(=O)[C@H](CCCN)NC(=O)[C@H](C(C)C)NC(=O)[C@H](Cc3ccc(-c4ccccc4)cc3)NC(=O)[C@H](C(C)C)NC2=O)c1 [Compound 1111] ({CH2CO}-[Dap]Y(Carboxymethyl)D[Phe(3-Me)]V[Bip]V[Orn][dL]H[Cha]VTCA[Dap][Aun]-OH; thioether N-14) | 64.2 nM |
| Cc1cccc(C[C@@H]2NC(=O)[C@H](CC(=O)O)NC(=O)[C@H](Cc3ccc(OCC(=O)O)cc3)NC(=O)[C@H](CN)NC(=O)CSC[C@@H](C(=O)N[C@@H](C)C(=O)N[C@@H](CCN)C(=O)NCCCCCCCCCCC(=O)O)NC(=O)[C@H]([C@@H](C)O)NC(=O)[C@H](C(C)C)NC(=O)[C@H](CC3CCCCC3)NC(=O)[C@H](Cc3cnc[nH]3)NC(=O)[C@@H](CC(C)C)NC(=O)[C@H](CCCN)NC(=O)[C@H](C(C)C)NC(=O)[C@H](Cc3ccc(-c4ccccc4)cc3)NC(=O)[C@H](C(C)C)NC2=O)c1 [Compound 1112] ({CH2CO}-[Dap]Y(Carboxymethyl)D[Phe(3-Me)]V[Bip]V[Orn][dL]H[Cha]VTCA[Dab][Aun]-OH; thioether N-14) | 18.2 nM |
| Cc1cccc(C[C@@H]2NC(=O)[C@H](CC(=O)O)NC(=O)[C@H](Cc3ccc(OCC(=O)O)cc3)NC(=O)[C@H](CN)NC(=O)CSC[C@@H](C(=O)N[C@@H](C)C(=O)N[C@@H](CCCN)C(=O)NCCCCCCCCCCC(=O)O)NC(=O)[C@H]([C@@H](C)O)NC(=O)[C@H](C(C)C)NC(=O)[C@H](CC3CCCCC3)NC(=O)[C@H](Cc3cnc[nH]3)NC(=O)[C@@H](CC(C)C)NC(=O)[C@H](CCCN)NC(=O)[C@H](C(C)C)NC(=O)[C@H](Cc3ccc(-c4ccccc4)cc3)NC(=O)[C@H](C(C)C)NC2=O)c1 [Compound 1113] ({CH2CO}-[Dap]Y(Carboxymethyl)D[Phe(3-Me)]V[Bip]V[Orn][dL]H[Cha]VTCA[Orn][Aun]-OH; thioether N-14) | 30.2 nM |
| CC(C)C[C@H]1NC(=O)[C@H](CCCN)NC(=O)[C@H](C(C)C)NC(=O)[C@H](Cc2ccc(-c3ccccc3)cc2)NC(=O)[C@H](C(C)C)NC(=O)[C@H](Cc2c[nH]c3ccccc23)NC(=O)[C@H](CC(=O)O)NC(=O)[C@H](Cc2ccc(OCC(=O)O)cc2)NC(=O)[C@H](CN)NC(=O)CSC[C@@H](C(=O)N[C@@H](C)C(=O)N[C@@H](CO)C(=O)NCCCCCCCCCCC(=O)O)NC(=O)[C@H]([C@@H](C)O)NC(=O)[C@H](C(C)C)NC(=O)[C@H](CC2CCCCC2)NC(=O)[C@H](Cc2cnc[nH]2)NC1=O [Compound 1114] ({CH2CO}-[Dap]Y(Carboxymethyl)DWV[Bip]V[Orn][dL]H[Cha]VTCAS[Aun]-OH; thioether N-14) | 61 nM |
| Cc1cccc(C[C@@H]2NC(=O)[C@H](CC(=O)O)NC(=O)[C@H](Cc3ccc(OCC(=O)O)cc3)NC(=O)[C@H](CN)NC(=O)CSC[C@@H](C(=O)N[C@@H](C)C(=O)N[C@@H](CO)C(=O)NCCCCCCCCCCC(=O)O)NC(=O)[C@H]([C@@H](C)O)NC(=O)[C@H](C(C)C)NC(=O)[C@H](CC3CCCCC3)NC(=O)[C@H](Cc3cnc[nH]3)NC(=O)[C@@H](CC(C)C)NC(=O)[C@H](CCCN)NC(=O)[C@H](C(C)C)NC(=O)[C@H](Cc3ccc(-c4ccccc4)cc3)NC(=O)[C@H](C(C)C)NC2=O)c1 [Compound 1115] ({CH2CO}-[Dap]Y(Carboxymethyl)D[Phe(3-Me)]V[Bip]V[Orn][dL]H[Cha]VTCAS[Aun]-OH; thioether N-14) | 26 nM |
| CC(C)C[C@H]1NC(=O)[C@H](CCCN)NC(=O)[C@H](C(C)C)NC(=O)[C@H](Cc2ccc(-c3ccccc3)cc2)NC(=O)[C@H](C(C)C)NC(=O)[C@H](Cc2c[nH]c3ccccc23)NC(=O)[C@H](CC(=O)O)NC(=O)[C@H](Cc2ccc(OCC(=O)O)cc2)NC(=O)[C@H](CN)NC(=O)CSCC(C(=O)N[C@H](C)C(=O)NCCCCCCCCCCC(=O)O)NC(=O)[C@H]([C@@H](C)O)NC(=O)[C@H](C(C)C)NC(=O)[C@H](CC2CCCCC2)NC(=O)[C@H](Cc2cnc[nH]2)NC1=O (some centres unmarked) [Compound 1116] | 37.6 nM |
| CC(C)C[C@H]1NC(=O)[C@H](CCCN)NC(=O)[C@H](C(C)C)NC(=O)[C@H](Cc2ccc(-c3ccccc3)cc2)NC(=O)[C@H](C(C)C)NC(=O)[C@H](Cc2c[nH]c3ccccc23)NC(=O)[C@H](CC(=O)O)NC(=O)[C@H](Cc2ccc(OCC(=O)O)cc2)NC(=O)[C@H](CN)NC(=O)CSCC(C(=O)N[C@H](CN)C(=O)NCCCCCCCCCCC(=O)O)NC(=O)[C@H]([C@@H](C)O)NC(=O)[C@H](C(C)C)NC(=O)[C@H](CC2CCCCC2)NC(=O)[C@H](Cc2cnc[nH]2)NC1=O (stereo partly drawn) [Compound 1117] ({CH2CO}-[Dap]Y(Carboxymethyl)DWV[Bip]V[Orn][dL]H[Cha]VT[ξC][dDap][Aun]-OH; thioether N-14) | 48.4 nM |
| CC(C)C[C@H]1NC(=O)[C@H](CCCN)NC(=O)[C@H](C(C)C)NC(=O)[C@H](Cc2ccc(-c3ccccc3)cc2)NC(=O)[C@H](C(C)C)NC(=O)[C@H](Cc2c[nH]c3ccccc23)NC(=O)[C@H](CC(=O)O)NC(=O)[C@H](Cc2ccc(OCC(=O)O)cc2)NC(=O)[C@H](CN)NC(=O)CSCC(C(=O)N[C@H](CCN)C(=O)NCCCCCCCCCCC(=O)O)NC(=O)[C@H]([C@@H](C)O)NC(=O)[C@H](C(C)C)NC(=O)[C@H](CC2CCCCC2)NC(=O)[C@H](Cc2cnc[nH]2)NC1=O (stereo partly drawn) [Compound 1118] ({CH2CO}-[Dap]Y(Carboxymethyl)DWV[Bip]V[Orn][dL]H[Cha]VT[ξC][dDab][Aun]-OH; thioether N-14) | 30.7 nM |
| CC(C)C[C@H]1NC(=O)[C@H](CCCN)NC(=O)[C@H](C(C)C)NC(=O)[C@H](Cc2ccc(-c3ccccc3)cc2)NC(=O)[C@H](C(C)C)NC(=O)[C@H](Cc2c[nH]c3ccccc23)NC(=O)[C@H](CC(=O)O)NC(=O)[C@H](Cc2ccc(OCC(=O)O)cc2)NC(=O)[C@H](CN)NC(=O)CSCC(C(=O)N[C@H](CCCN)C(=O)NCCCCCCCCCCC(=O)O)NC(=O)[C@H]([C@@H](C)O)NC(=O)[C@H](C(C)C)NC(=O)[C@H](CC2CCCCC2)NC(=O)[C@H](Cc2cnc[nH]2)NC1=O (stereo partly drawn) [Compound 1119] ({CH2CO}-[Dap]Y(Carboxymethyl)DWV[Bip]V[Orn][dL]H[Cha]VT[ξC][dOrn][Aun]-OH; thioether N-14) | 57.5 nM |
| CC(C)C[C@H]1NC(=O)[C@H](CCCN)NC(=O)[C@H](C(C)C)NC(=O)[C@H](Cc2ccc(-c3ccccc3)cc2)NC(=O)[C@H](C(C)C)NC(=O)[C@H](Cc2c[nH]c3ccccc23)NC(=O)[C@H](CC(=O)O)NC(=O)[C@H](Cc2ccc(OCC(=O)O)cc2)NC(=O)[C@H](CN)NC(=O)CSCC(C(=O)N[C@H](CCCCN)C(=O)NCCCCCCCCCCC(=O)O)NC(=O)[C@H]([C@@H](C)O)NC(=O)[C@H](C(C)C)NC(=O)[C@H](CC2CCCCC2)NC(=O)[C@H](Cc2cnc[nH]2)NC1=O (stereo partly drawn) [Compound 1120] ({CH2CO}-[Dap]Y(Carboxymethyl)DWV[Bip]V[Orn][dL]H[Cha]VT[ξC][dK][Aun]-OH; thioether N-14) | 40.9 nM |
| CC(C)C[C@H]1NC(=O)[C@H](CCCN)NC(=O)[C@H](C(C)C)NC(=O)[C@H](Cc2ccc(-c3ccccc3)cc2)NC(=O)[C@H](C(C)C)NC(=O)[C@H](Cc2c[nH]c3ccccc23)NC(=O)[C@H](CC(=O)O)NC(=O)[C@H](Cc2ccc(OCC(=O)O)cc2)NC(=O)[C@H](CN)NC(=O)CSCC(C(=O)N[C@H](CC(=O)O)C(=O)NCCCCCCCCCCC(=O)O)NC(=O)[C@H]([C@@H](C)O)NC(=O)[C@H](C(C)C)NC(=O)[C@H](CC2CCCCC2)NC(=O)[C@H](Cc2cnc[nH]2)NC1=O (stereo partly drawn) [Compound 1121] ({CH2CO}-[Dap]Y(Carboxymethyl)DWV[Bip]V[Orn][dL]H[Cha]VT[ξC][dD][Aun]-OH; thioether N-14) | 27.4 nM |
| CC(C)C[C@H]1NC(=O)[C@H](CCCN)NC(=O)[C@H](C(C)C)NC(=O)[C@H](Cc2ccc(-c3ccccc3)cc2)NC(=O)[C@H](C(C)C)NC(=O)[C@H](Cc2c[nH]c3ccccc23)NC(=O)[C@H](CC(=O)O)NC(=O)[C@H](Cc2ccc(OCC(=O)O)cc2)NC(=O)[C@H](CN)NC(=O)CSCC(C(=O)N[C@H](CCC(=O)O)C(=O)NCCCCCCCCCCC(=O)O)NC(=O)[C@H]([C@@H](C)O)NC(=O)[C@H](C(C)C)NC(=O)[C@H](CC2CCCCC2)NC(=O)[C@H](Cc2cnc[nH]2)NC1=O (stereo partly drawn) [Compound 1122] ({CH2CO}-[Dap]Y(Carboxymethyl)DWV[Bip]V[Orn][dL]H[Cha]VT[ξC][dE][Aun]-OH; thioether N-14) | 42.4 nM |
| CC(C)C[C@H]1NC(=O)[C@H](CCCN)NC(=O)[C@H](C(C)C)NC(=O)[C@H](Cc2ccc(-c3ccccc3)cc2)NC(=O)[C@H](C(C)C)NC(=O)[C@H](Cc2c[nH]c3ccccc23)NC(=O)[C@H](CC(=O)O)NC(=O)[C@H](Cc2ccc(OCC(=O)O)cc2)NC(=O)[C@H](CN)NC(=O)CSCC(C(=O)N[C@H](CO)C(=O)NCCCCCCCCCCC(=O)O)NC(=O)[C@H]([C@@H](C)O)NC(=O)[C@H](C(C)C)NC(=O)[C@H](CC2CCCCC2)NC(=O)[C@H](Cc2cnc[nH]2)NC1=O (stereo partly drawn) [Compound 1123] ({CH2CO}-[Dap]Y(Carboxymethyl)DWV[Bip]V[Orn][dL]H[Cha]VT[ξC][dS][Aun]-OH; thioether N-14) | 48.4 nM |
